{"source": "PubChem BioAssay AID2060504", "about": "(Molecular Pharmacology Branch, DTP, NCI, 2025);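 note: viability read after seven days of drug exposure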;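 for viability, T/C: luminescence signal used as a proxy for viable cells; 100% = DMSO vehicle control wells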", "test_system": "636577-100-R-J1-PDC complex spheroid viability", "assay": "Anticancer human tumor 636577-100-R-J1-PDC patient-derived endometrial adenocarcinoma cell line growth inhibition [GQUAD]", "details": "for IC50: curve of first compound; for viability, T/C: stronger effect = lower value", "outline": "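Tumor cells were grown as complex spheroids with HUVEC endothelial cells and mesenchymal stem cells as stroma. G-quadruplex stabilizers were combined with targeted agents over half-log dilutions from near the clinical Cmax, or from 10 microM.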", "key": {"[1]": {"details": "second compound 0.0316 µM, first compound 0.0316 µM"}, "[2]": {"details": "second compound 0.0316 µM, first compound 0.316 µM"}, "[3]": {"details": "second compound 0.1 µM, first compound 0.0316 µM"}, "[4]": {"details": "second compound 0.1 µM, first compound 0.316 µM"}, "[5]": {"details": "second compound 0.316 µM, first compound 0.0316 µM"}, "[6]": {"details": "second compound 0.316 µM, first compound 0.316 µM"}, "[7]": {"details": "second compound 1 µM, first compound 0.0316 µM"}, "[8]": {"details": "second compound 1 µM, first compound 0.316 µM"}, "[9]": {"details": "second compound 3.16 µM, first compound 0.0316 µM"}, "[10]": {"details": "second compound 3.16 µM, first compound 0.316 µM"}, "[11]": {"details": "second compound 10 µM, first compound 0.0316 µM"}, "[12]": {"details": "second compound 10 µM, first compound 0.316 µM"}}}
{"smiles": "Cc1cccc(N(C)C(=O)C2C(O)CCN2c2nc(C)cc(C(F)(F)F)c2C#N)c1", "note": "(centres undefined) + CN(C)c1ccc(Nc2c3ccc(NC(=O)CCN4CCCC4)cc3nc3cc(NC(=O)CCN4CCCC4)ccc23)cc1", "values": [{"measurement": "IC50", "setting": "second compound 0.0316 µM", "result": "> 10000", "unit": "nM"}, {"measurement": "IC50", "setting": "second compound 0.1 µM", "result": "> 10000", "unit": "nM"}, {"measurement": "IC50", "setting": "second compound 0.316 µM", "result": "> 10000", "unit": "nM"}, {"measurement": "IC50", "setting": "second compound 1 µM", "result": "> 10000", "unit": "nM"}, {"measurement": "IC50", "setting": "second compound 3.16 µM", "result": "< 31.6", "unit": "nM"}, {"measurement": "IC50", "setting": "second compound 10 µM", "result": "< 31.6", "unit": "nM"}, {"measurement": "viability, T/C", "setting": "[1]", "result": 78, "unit": "%"}, {"measurement": "viability, T/C", "setting": "second compound 0.0316 µM, first compound 0.1 µM", "result": 78.9, "unit": "%"}, {"measurement": "viability, T/C", "setting": "[2]", "result": 97.2, "unit": "%"}, {"measurement": "viability, T/C", "setting": "second compound 0.0316 µM, first compound 1 µM", "result": 102, "unit": "%"}, {"measurement": "viability, T/C", "setting": "second compound 0.0316 µM, first compound 3.16 µM", "result": 92.1, "unit": "%"}, {"measurement": "viability, T/C", "setting": "second compound 0.0316 µM, first compound 10 µM", "result": 86, "unit": "%"}, {"measurement": "viability, T/C", "setting": "[3]", "result": 105, "unit": "%"}, {"measurement": "viability, T/C", "setting": "second compound 0.1 µM, first compound 0.1 µM", "result": 73.6, "unit": "%"}, {"measurement": "viability, T/C", "setting": "[4]", "result": 89.7, "unit": "%"}, {"measurement": "viability, T/C", "setting": "second compound 0.1 µM, first compound 1 µM", "result": 92.8, "unit": "%"}, {"measurement": "viability, T/C", "setting": "second compound 0.1 µM, first compound 3.16 µM", "result": 92.8, "unit": "%"}, {"measurement": "viability, T/C", "setting": "second compound 0.1 µM, first compound 10 µM", "result": 82.9, "unit": "%"}, {"measurement": "viability, T/C", "setting": "[5]", "result": 80.6, "unit": "%"}, {"measurement": "viability, T/C", "setting": "second compound 0.316 µM, first compound 0.1 µM", "result": 79.7, "unit": "%"}, {"measurement": "viability, T/C", "setting": "[6]", "result": 91.3, "unit": "%"}, {"measurement": "viability, T/C", "setting": "second compound 0.316 µM, first compound 1 µM", "result": 88.5, "unit": "%"}, {"measurement": "viability, T/C", "setting": "second compound 0.316 µM, first compound 3.16 µM", "result": 96.9, "unit": "%"}, {"measurement": "viability, T/C", "setting": "second compound 0.316 µM, first compound 10 µM", "result": 78.3, "unit": "%"}, {"measurement": "viability, T/C", "setting": "[7]", "result": 78.1, "unit": "%"}, {"measurement": "viability, T/C", "setting": "second compound 1 µM, first compound 0.1 µM", "result": 87.2, "unit": "%"}, {"measurement": "viability, T/C", "setting": "[8]", "result": 78.6, "unit": "%"}, {"measurement": "viability, T/C", "setting": "second compound 1 µM, first compound 1 µM", "result": 71.5, "unit": "%"}, {"measurement": "viability, T/C", "setting": "second compound 1 µM, first compound 3.16 µM", "result": 76.4, "unit": "%"}, {"measurement": "viability, T/C", "setting": "second compound 1 µM, first compound 10 µM", "result": 57.4, "unit": "%"}, {"measurement": "viability, T/C", "setting": "[9]", "result": 34.9, "unit": "%"}, {"measurement": "viability, T/C", "setting": "second compound 3.16 µM, first compound 0.1 µM", "result": 47.4, "unit": "%"}, {"measurement": "viability, T/C", "setting": "[10]", "result": 45.8, "unit": "%"}, {"measurement": "viability, T/C", "setting": "second compound 3.16 µM, first compound 1 µM", "result": 31.6, "unit": "%"}, {"measurement": "viability, T/C", "setting": "second compound 3.16 µM, first compound 3.16 µM", "result": 30.1, "unit": "%"}, {"measurement": "viability, T/C", "setting": "second compound 3.16 µM, first compound 10 µM", "result": 27.2, "unit": "%"}, {"measurement": "viability, T/C", "setting": "[11]", "result": 7.75, "unit": "%"}, {"measurement": "viability, T/C", "setting": "second compound 10 µM, first compound 0.1 µM", "result": 6.99, "unit": "%"}, {"measurement": "viability, T/C", "setting": "[12]", "result": 4.7, "unit": "%"}, {"measurement": "viability, T/C", "setting": "second compound 10 µM, first compound 1 µM", "result": 4.67, "unit": "%"}, {"measurement": "viability, T/C", "setting": "second compound 10 µM, first compound 3.16 µM", "result": 2.93, "unit": "%"}, {"measurement": "viability, T/C", "setting": "second compound 10 µM, first compound 10 µM", "result": 0.73, "unit": "%"}]}
{"smiles": "Cn1ncnc1[C@H]1c2n[nH]c(=O)c3cc(F)cc(c23)N[C@@H]1c1ccc(F)cc1", "note": "+ CN(C)c1ccc(Nc2c3ccc(NC(=O)CCN4CCCC4)cc3nc3cc(NC(=O)CCN4CCCC4)ccc23)cc1", "values": [{"measurement": "IC50", "setting": "second compound 0.0316 µM", "result": 42.7, "unit": "nM"}, {"measurement": "IC50", "setting": "second compound 0.1 µM", "result": 24.6, "unit": "nM"}, {"measurement": "IC50", "setting": "second compound 0.316 µM", "result": 34.6, "unit": "nM"}, {"measurement": "IC50", "setting": "second compound 1 µM", "result": 45, "unit": "nM"}, {"measurement": "IC50", "setting": "second compound 3.16 µM", "result": "< 0.999", "unit": "nM"}, {"measurement": "IC50", "setting": "second compound 10 µM", "result": "< 0.999", "unit": "nM"}, {"measurement": "viability, T/C", "setting": "second compound 0.0316 µM, first compound 0.000999 µM", "result": 95.1, "unit": "%"}, {"measurement": "viability, T/C", "setting": "second compound 0.0316 µM, first compound 0.00316 µM", "result": 78.8, "unit": "%"}, {"measurement": "viability, T/C", "setting": "second compound 0.0316 µM, first compound 0.00999 µM", "result": 84.6, "unit": "%"}, {"measurement": "viability, T/C", "setting": "[1]", "result": 50.4, "unit": "%"}, {"measurement": "viability, T/C", "setting": "second compound 0.0316 µM, first compound 0.0999 µM", "result": 42.2, "unit": "%"}, {"measurement": "viability, T/C", "setting": "[2]", "result": 29, "unit": "%"}, {"measurement": "viability, T/C", "setting": "second compound 0.1 µM, first compound 0.000999 µM", "result": 102, "unit": "%"}, {"measurement": "viability, T/C", "setting": "second compound 0.1 µM, first compound 0.00316 µM", "result": 73, "unit": "%"}, {"measurement": "viability, T/C", "setting": "second compound 0.1 µM, first compound 0.00999 µM", "result": 56.1, "unit": "%"}, {"measurement": "viability, T/C", "setting": "[3]", "result": 51.4, "unit": "%"}, {"measurement": "viability, T/C", "setting": "second compound 0.1 µM, first compound 0.0999 µM", "result": 46.7, "unit": "%"}, {"measurement": "viability, T/C", "setting": "[4]", "result": 23, "unit": "%"}, {"measurement": "viability, T/C", "setting": "second compound 0.316 µM, first compound 0.000999 µM", "result": 81.9, "unit": "%"}, {"measurement": "viability, T/C", "setting": "second compound 0.316 µM, first compound 0.00316 µM", "result": 63.7, "unit": "%"}, {"measurement": "viability, T/C", "setting": "second compound 0.316 µM, first compound 0.00999 µM", "result": 59.3, "unit": "%"}, {"measurement": "viability, T/C", "setting": "[5]", "result": 49.7, "unit": "%"}, {"measurement": "viability, T/C", "setting": "second compound 0.316 µM, first compound 0.0999 µM", "result": 48.6, "unit": "%"}, {"measurement": "viability, T/C", "setting": "[6]", "result": 37.8, "unit": "%"}, {"measurement": "viability, T/C", "setting": "second compound 1 µM, first compound 0.000999 µM", "result": 63.2, "unit": "%"}, {"measurement": "viability, T/C", "setting": "second compound 1 µM, first compound 0.00316 µM", "result": 63.6, "unit": "%"}, {"measurement": "viability, T/C", "setting": "second compound 1 µM, first compound 0.00999 µM", "result": 61.2, "unit": "%"}, {"measurement": "viability, T/C", "setting": "[7]", "result": 52.1, "unit": "%"}, {"measurement": "viability, T/C", "setting": "second compound 1 µM, first compound 0.0999 µM", "result": 40.2, "unit": "%"}, {"measurement": "viability, T/C", "setting": "[8]", "result": 38.2, "unit": "%"}, {"measurement": "viability, T/C", "setting": "second compound 3.16 µM, first compound 0.000999 µM", "result": 42.7, "unit": "%"}, {"measurement": "viability, T/C", "setting": "second compound 3.16 µM, first compound 0.00316 µM", "result": 41.5, "unit": "%"}, {"measurement": "viability, T/C", "setting": "second compound 3.16 µM, first compound 0.00999 µM", "result": 33.8, "unit": "%"}, {"measurement": "viability, T/C", "setting": "[9]", "result": 31.4, "unit": "%"}, {"measurement": "viability, T/C", "setting": "second compound 3.16 µM, first compound 0.0999 µM", "result": 25.1, "unit": "%"}, {"measurement": "viability, T/C", "setting": "[10]", "result": 24.9, "unit": "%"}, {"measurement": "viability, T/C", "setting": "second compound 10 µM, first compound 0.000999 µM", "result": 7.06, "unit": "%"}, {"measurement": "viability, T/C", "setting": "second compound 10 µM, first compound 0.00316 µM", "result": 7.39, "unit": "%"}, {"measurement": "viability, T/C", "setting": "second compound 10 µM, first compound 0.00999 µM", "result": 6.25, "unit": "%"}, {"measurement": "viability, T/C", "setting": "[11]", "result": 5.78, "unit": "%"}, {"measurement": "viability, T/C", "setting": "second compound 10 µM, first compound 0.0999 µM", "result": 5.88, "unit": "%"}, {"measurement": "viability, T/C", "setting": "[12]", "result": 4.9, "unit": "%"}]}
